Experimental data as given in patent US20170190671A1, “BIS(ARYL)CATECHOL DERIVATIVES AS HERBICIDES” (E I DU PONT DE NEMOURS AND COMPANY, priority 2014, published 2017).

Experiments:
[1] = test system: morningglory (Ipomoea spp.); assay: Test A postemergence; assay type: in vivo; settings: 0 to 100 scale
In short: (§1)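 Visual injury scored 0–100 (100 = complete control) against untreated controls about 10 days after treatment in a greenhouse. Test chemicals, formulated with surfactant in non-phytotoxic solvent, were sprayed on soil preemergence or on 2-10 cm, one- to two-leaf plants postemergence.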

[2] = test system: velvetleaf (Abutilon theophrasti); assay: Test A postemergence; assay type: in vivo; settings: 0 to 100 scale
In short: as §1

[3] = test system: large (Lg) crabgrass (Digitaria sanguinalis); assay: Test A postemergence; assay type: in vivo; settings: 0 to 100 scale
In short: as §1

wild oat (Avenafatua) = assay: Test D preemergence; assay type: in vivo, Avena fatua; settings: scale 0 to 100
Description: Seeds of plant species selected from bluegrass (annual bluegrass, Poa annua), blackgrass (Alopecurus myosuroides), canarygrass (Phalaris minor), chickweed (common chickweed, Stellaria media), cutleaf geranium (Geranium dissectum), galium (catchweed bedstraw, Galium aparine), downy bromegrass (Bromus tectorum), field poppy (Papaver rhoeas), field violet (Viola arvensis), green foxtail (Setaria viridis), deadnettle (henbit deadnettle, Lamium amplexicaule), Italian ryegrass (Lolium multiflorum), kochia (Kochia scoparia), lambsquarters (Chenopodium album), oilseed rape (Brassica napus), pigweed (Amaranthus retroflexus), chamomile (scentless chamomile, Matricaria inodora), Russian thistle (Salsola kali), speedwell (bird's-eye speedwell, Veronica persica), spring barley (Hordeum vulgare), spring wheat (Triticum aestivum), wild buckwheat (Polygonum convolvulus), wild mustard (Sinapis arvensis), wild oat (Avenafatua), wild radish (Raphanus raphanistrum), windgrass (Apera spica-venti), winter barley (Hordeum vulgare), and winter wheat (Triticum aestivum) were planted into a silt loam soil and treated preemergence with test chemicals formulated in a non-phytotoxic solvent mixture which included a surfactant.
At the same time, these species were planted in pots containing Redi-Earth® planting medium (Scotts Company, 14111 Scottslawn Road, Marysville, Ohio 43041) comprising spaghnum peat moss, vermiculite, wetting agent and starter nutrients and treated with postemergence applications of the test chemicals formulated in the same manner. Plants ranged in height from 2 to 18 cm (1- to 4-leaf stage). Treated plants and controls were maintained in a controlled growth environment for 14 to 21 days after which time all species were compared to controls and visually evaluated. Plant response ratings, summarized in Table D, are based on a scale of 0 to 100 where 0 is no effect and 100 is complete control. A dash (-) response means no test result.

[4] = test system: canarygrass (Phalaris minor); assay: Test D postemergence; assay type: in vivo; settings: scale 0 to 100
In short: (§2)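 Ratings of 0–100 reflect visual comparison with control plants at 14 to 21 days. For preemergence, compound was sprayed on silt loam just after sowing; for postemergence, on plants 2 to 18 cm in height.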

[5] = test system: Italian ryegrass (Lolium multiflorum); assay: Test D postemergence; assay type: in vivo; settings: scale 0 to 100
In short: as §2

[6] = test system: bluegrass (annual bluegrass, Poa annua); assay: Test D postemergence; assay type: in vivo; settings: scale 0 to 100
In short: as §2

[7] = test system: chickweed (common chickweed, Stellaria media); assay: Test D postemergence; assay type: in vivo; settings: scale 0 to 100
In short: as §2

[8] = test system: windgrass (Apera spica-venti); assay: Test D postemergence; assay type: in vivo; settings: scale 0 to 100
In short: as §2

[9] = test system: downy bromegrass (Bromus tectorum); assay: Test D postemergence; assay type: in vivo; settings: scale 0 to 100
In short: as §2

[10] = test system: pigweed (Amaranthus retroflexus); assay: Test D postemergence; assay type: in vivo; settings: scale 0 to 100
In short: as §2

[11] = test system: blackgrass (Alopecurus myosuroides); assay: Test D postemergence; assay type: in vivo; settings: scale 0 to 100
In short: as §2

[12] = test system: wild buckwheat (Polygonum convolvulus); assay: Test D postemergence; assay type: in vivo; settings: scale 0 to 100
In short: as §2

[13] = test system: oilseed rape (Brassica napus); assay: Test D postemergence; assay type: in vivo; settings: scale 0 to 100
In short: as §2

[14] = test system: field poppy (Papaver rhoeas); assay: Test D postemergence; assay type: in vivo; settings: scale 0 to 100
In short: as §2

## Clc1cnc(Oc2cccc(Br)c2Oc2ncc(Cl)cn2)nc1 [Compound 19, 2,2′-[[3-bromo-1,2-phenylene]bis(oxy)]bis[5-chloropyrimidine]]
[1]; 125 g ai/ha
  Plant response rating, Morningglory: 70
[1]; 500 g ai/ha
  Plant response rating, Morningglory: 100
[2]; 125 g ai/ha
  Plant response rating, Velvetleaf: 100
[2]; 500 g ai/ha
  Plant response rating, Velvetleaf: 100
[3]; 125 g ai/ha
  Plant response rating, Crabgrass, Large: 70
[3]; 500 g ai/ha
  Plant response rating, Crabgrass, Large: 90

## Fc1cccc(Oc2ncc(Cl)cn2)c1Oc1ncc(Cl)cn1 [Compound 21, 2,2′-[[3-fluoro-1,2-phenylene]bis(oxy)]bis[5-chloropyrimidine]]
[1]; 125 g ai/ha
  Plant response rating, Morningglory: 90
[1]; 500 g ai/ha
  Plant response rating, Morningglory: 100
[2]; 125 g ai/ha
  Plant response rating, Velvetleaf: 90
[2]; 500 g ai/ha
  Plant response rating, Velvetleaf: 100
[3]; 125 g ai/ha
  Plant response rating, Crabgrass, Large: 80
[3]; 500 g ai/ha
  Plant response rating, Crabgrass, Large: 90

## FC(F)(F)c1cnc(Oc2c(Br)cccc2Oc2ncc(Cl)cn2)nc1 [Compound 24]
Wild oat (Avenafatua); 16 g ai/ha
  Plant response rating, Oat, Wild: 0
Wild oat (Avenafatua); 31 g ai/ha
  Plant response rating, Oat, Wild: 15
Wild oat (Avenafatua); 62 g ai/ha
  Plant response rating, Oat, Wild: 25
Wild oat (Avenafatua); 125 g ai/ha
  Plant response rating, Oat, Wild: 75
[4]; 16 g ai/ha
  Plant response rating, Canarygrass: 30
[4]; 31 g ai/ha
  Plant response rating, Canarygrass: 35
[4]; 62 g ai/ha
  Plant response rating, Canarygrass: 45
[4]; 125 g ai/ha
  Plant response rating, Canarygrass: 45
[5]; 16 g ai/ha
  Plant response rating, Ryegrass, Italian: 15
[5]; 31 g ai/ha
  Plant response rating, Ryegrass, Italian: 20
[5]; 62 g ai/ha
  Plant response rating, Ryegrass, Italian: 25
[5]; 125 g ai/ha
  Plant response rating, Ryegrass, Italian: 35
[6]; 16 g ai/ha
  Plant response rating, Bluegrass: 15
[6]; 31 g ai/ha
  Plant response rating, Bluegrass: 20
[6]; 62 g ai/ha
  Plant response rating, Bluegrass: 35
[6]; 125 g ai/ha
  Plant response rating, Bluegrass: 40
[7]; 16 g ai/ha
  Plant response rating, Chickweed: 60
[7]; 31 g ai/ha
  Plant response rating, Chickweed: 70
[7]; 62 g ai/ha
  Plant response rating, Chickweed: 75
[7]; 125 g ai/ha
  Plant response rating, Chickweed: 85
[8]; 16 g ai/ha
  Plant response rating, Windgrass: 10
[8]; 31 g ai/ha
  Plant response rating, Windgrass: 15
[8]; 62 g ai/ha
  Plant response rating, Windgrass: 25
[8]; 125 g ai/ha
  Plant response rating, Windgrass: 35
[9]; 16 g ai/ha
  Plant response rating, Bromegrass, Downy: 15
[9]; 31 g ai/ha
  Plant response rating, Bromegrass, Downy: 20
[9]; 62 g ai/ha
  Plant response rating, Bromegrass, Downy: 20
[9]; 125 g ai/ha
  Plant response rating, Bromegrass, Downy: 25
[10]; 16 g ai/ha
  Plant response rating, Pigweed: 85
[10]; 31 g ai/ha
  Plant response rating, Pigweed: 95
[10]; 62 g ai/ha
  Plant response rating, Pigweed: 98
[10]; 125 g ai/ha
  Plant response rating, Pigweed: 100
[11]; 16 g ai/ha
  Plant response rating, Blackgrass: 25
[11]; 31 g ai/ha
  Plant response rating, Blackgrass: 30
[11]; 62 g ai/ha
  Plant response rating, Blackgrass: 35
[11]; 125 g ai/ha
  Plant response rating, Blackgrass: 45
[12]; 16 g ai/ha
  Plant response rating, Buckwheat, Wild: 60
[12]; 31 g ai/ha
  Plant response rating, Buckwheat, Wild: 60
[12]; 62 g ai/ha
  Plant response rating, Buckwheat, Wild: 75
[12]; 125 g ai/ha
  Plant response rating, Buckwheat, Wild: 95
[13]; 16 g ai/ha
  Plant response rating, Oilseed Rape: 65
[13]; 31 g ai/ha
  Plant response rating, Oilseed Rape: 70
[13]; 62 g ai/ha
  Plant response rating, Oilseed Rape: 75
[13]; 125 g ai/ha
  Plant response rating, Oilseed Rape: 80
[14]; 16 g ai/ha
  Plant response rating, Field Poppy: 70
[14]; 31 g ai/ha
  Plant response rating, Field Poppy: 80
[14]; 62 g ai/ha
  Plant response rating, Field Poppy: 90
[14]; 125 g ai/ha
  Plant response rating, Field Poppy: 95

## Fc1cccc(Oc2ncc(C(F)(F)F)cn2)c1Oc1ncc(Cl)cn1 [Compound 42, 5-chloro-2-[2-fluoro-6-[[5-(trifluoromethyl)-2-pyrimidinyl]oxy]phenoxy]pyrimidine]
Wild oat (Avenafatua); 16 g ai/ha
  Plant response rating, Oat, Wild: 5
Wild oat (Avenafatua); 31 g ai/ha
  Plant response rating, Oat, Wild: 5
Wild oat (Avenafatua); 62 g ai/ha
  Plant response rating, Oat, Wild: 50
Wild oat (Avenafatua); 125 g ai/ha
  Plant response rating, Oat, Wild: 95
[4]; 16 g ai/ha
  Plant response rating, Canarygrass: 35
[4]; 31 g ai/ha
  Plant response rating, Canarygrass: 65
[4]; 62 g ai/ha
  Plant response rating, Canarygrass: 70
[4]; 125 g ai/ha
  Plant response rating, Canarygrass: 75
[5]; 16 g ai/ha
  Plant response rating, Ryegrass, Italian: 20
[5]; 31 g ai/ha
  Plant response rating, Ryegrass, Italian: 50
[5]; 62 g ai/ha
  Plant response rating, Ryegrass, Italian: 60
[5]; 125 g ai/ha
  Plant response rating, Ryegrass, Italian: 65
[6]; 16 g ai/ha
  Plant response rating, Bluegrass: 50
[6]; 31 g ai/ha
  Plant response rating, Bluegrass: 50
[6]; 62 g ai/ha
  Plant response rating, Bluegrass: 60
[6]; 125 g ai/ha
  Plant response rating, Bluegrass: 70
[7]; 16 g ai/ha
  Plant response rating, Chickweed: 65
[7]; 31 g ai/ha
  Plant response rating, Chickweed: 65
[7]; 62 g ai/ha
  Plant response rating, Chickweed: 85
[7]; 125 g ai/ha
  Plant response rating, Chickweed: 90
[8]; 16 g ai/ha
  Plant response rating, Windgrass: 25
[8]; 31 g ai/ha
  Plant response rating, Windgrass: 40
[8]; 62 g ai/ha
  Plant response rating, Windgrass: 50
[8]; 125 g ai/ha
  Plant response rating, Windgrass: 60
[9]; 16 g ai/ha
  Plant response rating, Bromegrass, Downy: 30
[9]; 31 g ai/ha
  Plant response rating, Bromegrass, Downy: 35
[9]; 62 g ai/ha
  Plant response rating, Bromegrass, Downy: 40
[9]; 125 g ai/ha
  Plant response rating, Bromegrass, Downy: 60
[10]; 16 g ai/ha
  Plant response rating, Pigweed: 100
[10]; 31 g ai/ha
  Plant response rating, Pigweed: 100
[10]; 62 g ai/ha
  Plant response rating, Pigweed: 100
[10]; 125 g ai/ha
  Plant response rating, Pigweed: 100
[11]; 16 g ai/ha
  Plant response rating, Blackgrass: 20
[11]; 31 g ai/ha
  Plant response rating, Blackgrass: 55
[11]; 62 g ai/ha
  Plant response rating, Blackgrass: 60
[11]; 125 g ai/ha
  Plant response rating, Blackgrass: 75
[12]; 16 g ai/ha
  Plant response rating, Buckwheat, Wild: 75
[12]; 31 g ai/ha
  Plant response rating, Buckwheat, Wild: 80
[12]; 62 g ai/ha
  Plant response rating, Buckwheat, Wild: 95
[12]; 125 g ai/ha
  Plant response rating, Buckwheat, Wild: 100
[13]; 16 g ai/ha
  Plant response rating, Oilseed Rape: 75
[13]; 31 g ai/ha
  Plant response rating, Oilseed Rape: 75
[13]; 62 g ai/ha
  Plant response rating, Oilseed Rape: 85
[13]; 125 g ai/ha
  Plant response rating, Oilseed Rape: 95
[14]; 16 g ai/ha
  Plant response rating, Field Poppy: 55
[14]; 31 g ai/ha
  Plant response rating, Field Poppy: 75
[14]; 62 g ai/ha
  Plant response rating, Field Poppy: 100
[14]; 125 g ai/ha
  Plant response rating, Field Poppy: 100
